Test results reported in PubChem BioAssay (NCI).
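96-well plates; 48 h exposure; 5 concentrations. Endpoints by linear interpolation between flanking doses. Not reached: highest tested concentration assigned. TGI: total growth inhibition.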

Legend:
Test in all cases: DTP human tumour cell line panel, 48 h
A549 NSCLC = system: A549 NSCLC
CCRF-CEM leukemia = system: CCRF-CEM leukemia
HCT-116 colon = system: HCT-116 colon
HL-60(TB) leukemia = system: HL-60(TB) leukemia
KM12 colon = system: KM12 colon
SK-OV-3 ovarian = system: SK-OV-3 ovarian
SN12C renal = system: SN12C renal
SNB-75 CNS = system: SNB-75 CNS
TK-10 renal = system: TK-10 renal
U251 CNS = system: U251 CNS
UACC-257 melanoma = system: UACC-257 melanoma

CC(=O)O[C@H]1CC[C@@]2(C)C(=CC[C@H]3[C@@H]4C[C@H](N5CCCC5)[C@H](OC(C)=O)[C@@]4(C)CC[C@@H]32)C1
TGI (A549 NSCLC): > 100 µM
TGI (CCRF-CEM leukemia): > 100 µM
TGI (HCT-116 colon): > 100 µM
TGI (HL-60(TB) leukemia): > 80.9 µM
TGI (KM12 colon): > 100 µM
TGI (SK-OV-3 ovarian): > 100 µM
TGI (SN12C renal): > 100 µM
TGI (SNB-75 CNS): > 100 µM
TGI (TK-10 renal): > 100 µM
TGI (U251 CNS): > 100 µM
TGI (UACC-257 melanoma): > 68.2 µM

Cc1ccn2c(=O)cc(-c3ccccc3)nc2c1
TGI (A549 NSCLC): > 100 µM
TGI (CCRF-CEM leukemia): > 100 µM
TGI (HCT-116 colon): > 100 µM
TGI (HL-60(TB) leukemia): > 100 µM
TGI (KM12 colon): > 100 µM
TGI (SK-OV-3 ovarian): > 100 µM
TGI (SN12C renal): > 100 µM
TGI (SNB-75 CNS): > 100 µM
TGI (TK-10 renal): > 100 µM
TGI (U251 CNS): > 100 µM
TGI (UACC-257 melanoma): > 100 µM

O=C1OC2(OC2c2ccccc2)c2ccccc21 (centres undefined)
TGI (A549 NSCLC): > 100 µM
TGI (CCRF-CEM leukemia): > 100 µM
TGI (HCT-116 colon): > 100 µM
TGI (HL-60(TB) leukemia): > 100 µM
TGI (KM12 colon): > 100 µM
TGI (SK-OV-3 ovarian): > 100 µM
TGI (SN12C renal): > 100 µM
TGI (SNB-75 CNS): > 100 µM
TGI (TK-10 renal): > 100 µM
TGI (U251 CNS): > 100 µM
TGI (UACC-257 melanoma): > 100 µM

O=c1c2ncn(COCCCl)c2n(-c2ccccc2)c(=S)n1-c1ccccc1
TGI (A549 NSCLC): > 100 µM
TGI (CCRF-CEM leukemia): > 100 µM
TGI (HCT-116 colon): > 100 µM
TGI (HL-60(TB) leukemia): > 100 µM
TGI (KM12 colon): > 100 µM
TGI (SK-OV-3 ovarian): > 100 µM
TGI (SN12C renal): > 100 µM
TGI (SNB-75 CNS): > 100 µM
TGI (TK-10 renal): > 100 µM
TGI (U251 CNS): > 100 µM
TGI (UACC-257 melanoma): > 100 µM

Nc1cccc(Nc2nc3ccccc3nc2NS(=O)(=O)c2ccccc2)c1
TGI (A549 NSCLC): > 100 µM
TGI (CCRF-CEM leukemia): 46.7 µM
TGI (HCT-116 colon): 32.9 µM
TGI (HL-60(TB) leukemia): 46.6 µM
TGI (KM12 colon): 41.7 µM
TGI (SK-OV-3 ovarian): > 100 µM
TGI (SN12C renal): > 100 µM
TGI (SNB-75 CNS): > 100 µM
TGI (TK-10 renal): > 100 µM
TGI (U251 CNS): 35.3 µM
TGI (UACC-257 melanoma): > 100 µM

Oc1cc(C2OCCCO2)cc(O)c1O
TGI (A549 NSCLC): > 100 µM
TGI (CCRF-CEM leukemia): > 100 µM
TGI (HCT-116 colon): > 100 µM
TGI (HL-60(TB) leukemia): > 100 µM
TGI (KM12 colon): > 100 µM
TGI (SK-OV-3 ovarian): > 100 µM
TGI (SN12C renal): > 100 µM
TGI (SNB-75 CNS): > 100 µM
TGI (TK-10 renal): > 100 µM
TGI (U251 CNS): > 100 µM
TGI (UACC-257 melanoma): > 100 µM

CC(=O)O[C@H]1C#C/C=C\C#CC[C@@H]2C(=O)N[C@@H]12
TGI (A549 NSCLC): > 100 µM
TGI (CCRF-CEM leukemia): > 100 µM
TGI (HCT-116 colon): > 100 µM
TGI (HL-60(TB) leukemia): 33.5 µM
TGI (KM12 colon): > 100 µM
TGI (SK-OV-3 ovarian): > 100 µM
TGI (SN12C renal): > 80.4 µM
TGI (SNB-75 CNS): > 90.7 µM
TGI (TK-10 renal): > 100 µM
TGI (U251 CNS): > 100 µM
TGI (UACC-257 melanoma): > 100 µM

Cc1ccc([C@H]2CC(=O)C[C@H](c3ccc(C)cc3)C23C(=O)c2ccccc2C3=O)cc1
TGI (A549 NSCLC): > 100 µM
TGI (CCRF-CEM leukemia): 59.9 µM
TGI (HCT-116 colon): > 100 µM
TGI (HL-60(TB) leukemia): 33.2 µM
TGI (KM12 colon): > 100 µM
TGI (SK-OV-3 ovarian): > 100 µM
TGI (SN12C renal): > 100 µM
TGI (SNB-75 CNS): 34.1 µM
TGI (TK-10 renal): > 100 µM
TGI (U251 CNS): 35.6 µM
TGI (UACC-257 melanoma): 49.7 µM

CC1=NN2C(=N)/C(=C/c3ccco3)C(=O)N=C2S1
TGI (A549 NSCLC): > 100 µM
TGI (CCRF-CEM leukemia): > 100 µM
TGI (HCT-116 colon): > 100 µM
TGI (HL-60(TB) leukemia): > 100 µM
TGI (KM12 colon): > 100 µM
TGI (SK-OV-3 ovarian): > 100 µM
TGI (SN12C renal): > 100 µM
TGI (SNB-75 CNS): > 100 µM
TGI (TK-10 renal): > 100 µM
TGI (U251 CNS): > 100 µM
TGI (UACC-257 melanoma): > 100 µM
